Assays:
Assay type in all cases: biochemical
[1] = molecular target: T1, recombinant 11β-HSD1 enzyme (Homo sapiens (Human), UniProt P28845); test: 11β-HSD1 reductase activity (HTRF Cortisol Kit); settings: 266 nM cortisone, 333 μM NADPH, read-out: 11b-HSD1 reductase (HTRF) IC50
Description: Determination of 11β-HSD1 Reductase Activity
First, stock solutions of the compounds were prepared in DMSO at a concentration of […], of which serial dilutions were made in order to determine the efficacy curve.
As for the recombinant 11β-HSD1 enzyme (Cayman Chemical, MI, USA; Item No. 10007815), it was prepared in Tris Buffer 20 mM EDTA 5 mM pH 6.0 (Tris buffer) at different dilutions.
Initially, the enzyme concentration to be used in the assays in order to evaluate the biological activity of the compounds was determined. The Cortisol Kit product (Cisbio, MA, USA; Cat no. 62CRTPEG) was used for that purpose.
The protocol consisted of preparing the reaction buffer, adding 266 nM cortisone and 333 μM NADPH in Tris buffer. Then, this reaction buffer is added to the wells of the HTRF (Homogeneous Time Resolved Fluorescence) reaction plate together with the enzyme in a 4:1 ratio respectively, and incubated for 2 hours at 37° C. In the case of the control wells, two wells with Tris buffer were added, without compounds.
After the incubation time, the reagents of the Cortisol kit were added, Cortisol d2 and Cortisol cryptate in sample ratio, Cortisol d2 and cortisol cryptate 2:1:1, in a quantity according to the size of the well as indicated by the supplier (for the negative control of the kit, the cortisol d2 is replaced by the kit's reconstitution buffer). This reaction is incubated for 1 hour at room temperature in order to later read the fluorescence at 665 and 620 nm.
Once the enzyme concentration to be used has been determined, the cortisol kit protocol is continued to determine the efficacy curve for the compounds. As previously done, a plate for HTRF was prepared adding to each well of the reaction buffer, the recombinant 11β-HSD1 enzyme and the compounds to be assayed in a 3:1:1 ratio, respectively. The plate was subsequently incubated at 37° C. for 2 hours.
After the incubation time, the reagents of the cortisol kit, cortisol d2 and cortisol cryptate, are added, and were incubated again for 1 hour at room temperature. Finally, the fluorescence of each well was determined at 665 and 620 nm.

[2] = molecular target: T1, recombinant 11β-HSD1 enzyme; test: 11β-HSD1 oxidase activity (HTRF Cortisol Kit); settings: for 11b-HSD1 oxidase (activ rem %) 100 nM: remaining activity at 100 nM compound; for 11b-HSD1 oxidase (activ rem %) 100 uM: remaining activity at 100 uM compound
Description: Determination of 11β-HSD1 Oxidase Activity
The Cortisol Kit (Cisbio) product was used for that purpose.
For the analysis, the compounds are reconstituted in DMSO in a stock of 10 mM concentration, from which serial dilutions were prepared for the efficiency curve.
The recombinant 11β-HSD1 enzyme dilutions were prepared in 20 mM Tris Buffer 5 mM EDTA pH 6.0 (Tris buffer).
Initially, the enzyme concentration to be used was determined. For this purpose, a plate for HRTF was prepared with Tris buffer with 100 nM cortisol and 200 μM NADP+, including in the wells of the plate for HTRF together with the enzyme in a 4:1 ratio, respectively, and incubated for 2 hours at 37° C. After this time, the reagents of the Cortisol kit, Cortisol d2 and Cortisol cryptate in sample ratio, Cortisol d2 and cortisol cryptate 2:1:1 were added, incubating this new reaction for 1 hour at room temperature. Subsequently, the fluorescence was determined at 665 and 620 nm.
An HRTF plate was again prepared, where the reaction buffer, the recombinant 11β-HSD1 enzyme and the compound were added in each well in a 3:1:1 ratio, respectively. The plate was incubated at 37° C. for 2 hours. After the incubation time, the reagents of the cortisol kit, cortisol d2 and cortisol cryptate, were added as indicated above. They were then incubated at room temperature for 1 hour to finally read the fluorescence at 665 and 620 nm.

11β-HSD2 = 11β-HSD2 oxidase activity in human hepatic microsomes (HTRF Cortisol Kit); settings: remaining activity at 100 nM compound
Description: Determination of 11β-HSD2 Oxidase Activity
The concentration of cortisone produced in the reaction, with and without the compounds, was determined using the Cortisol Kit (Cisbio) product in order to evaluate the 11β-HSD2 oxidase activity.
As in the previous assays, the compounds are reconstituted in DMSO to 10 mM stock, in order to subsequently make serial dilutions to determine the efficacy curve.
To perform the assay, the HTRF plate was prepared containing Tris buffer, 100 nM cortisol and 200 μM NAD^+. Enzyme is added to the corresponding wells in a 4:1 ratio, respectively, and incubated for 2 hours at 37° C. For the kit control, two wells are added only with Tris buffer.
After the incubation time, the reagents of the Cortisol kit, Cortisol d2 and Cortisol cryptate, in a sample ratio, Cortisol d2 and cortisol cryptate 2:1:1 are added. For the negative control, cortisol d2 was replaced in some wells by the kit's reconstitution buffer. The plate was incubated for 1 hour at room temperature to later read at 665 and 620 nm.
For this purpose, the reaction buffer was prepared and subsequently, in a plate for HTRF, the reaction buffer, the microsomes in a concentration of 5 mg/mL and the compound in a ratio of 3:1:1, respectively, were added to each well. In the case of reaction controls, the reaction buffer without cortisol and without compound is included for the negative control. For the positive control, no compound is added, and for the kit controls, only the reaction buffer is added to the negative and positive control wells.
After incubating the plate for 2 hours, the reagents of the cortisol kit, cortisol d2 and cortisol cryptate, are added to the corresponding wells as indicated above. They are then incubated at room temperature for 1 hour to finally read the 665 and 620 nm fluorescence.

T1 sequence (P28845 whole entry): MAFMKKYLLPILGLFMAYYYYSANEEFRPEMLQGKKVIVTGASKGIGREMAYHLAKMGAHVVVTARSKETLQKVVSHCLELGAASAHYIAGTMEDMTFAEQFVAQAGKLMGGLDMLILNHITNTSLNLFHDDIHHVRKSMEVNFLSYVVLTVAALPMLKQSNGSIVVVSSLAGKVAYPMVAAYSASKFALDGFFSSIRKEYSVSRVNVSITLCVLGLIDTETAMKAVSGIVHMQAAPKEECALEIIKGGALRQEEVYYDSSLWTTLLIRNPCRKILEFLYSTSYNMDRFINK

SMILES: c1ccc(CCc2nc(C34CC5CC(CC(C5)C3)C4)no2)cc1 [BD-31, 1-phenyl-2-(3-adamantyl-1,2,4-oxadiazol-5-yl)ethane]
- IC50 [1]: 147 nM
- 11b-HSD1 oxidase (activ rem %) 100 nM [2]: 86.1%
- 11b-HSD1 oxidase (activ rem %) 100 uM [2]: 86.20%
- 11b-HSD2 oxidase (activ rem %) Microcosms 100 nM (11β-HSD2): 55.4%

SMILES: COc1ccc(CCc2nc(C34CC5CC(CC(C5)C3)C4)no2)cc1 [BD-32, 1-(4-methoxyphenyl)-2-(3-adamantyl-1,2,4-oxadiazol-5-yl)ethane]
- IC50 [1]: 95.4 nM
- 11b-HSD1 oxidase (activ rem %) 100 nM [2]: 104.1%
- 11b-HSD1 oxidase (activ rem %) 100 uM [2]: 62.7%
- 11b-HSD2 oxidase (activ rem %) Microcosms 100 nM (11β-HSD2): 60.0%

SMILES: Clc1ccc(CCc2nc(C34CC5CC(CC(C5)C3)C4)no2)cc1 [BD-33, 1-(4-chlorophenyl)-2-(3-adamantyl-1,2,4-oxadiazol-5-yl)ethane]
- IC50 [1]: 9.2 nM
- 11b-HSD1 oxidase (activ rem %) 100 nM [2]: 107.0%
- 11b-HSD1 oxidase (activ rem %) 100 uM [2]: 75.4%
- 11b-HSD2 oxidase (activ rem %) Microcosms 100 nM (11β-HSD2): 59.4%

SMILES: Fc1ccc(CCc2nc(C34CC5CC(CC(C5)C3)C4)no2)cc1 [BD-34, 1-(4-fluorophenyl)-2-(3-adamantyl-1,2,4-oxadiazol-5-yl)ethane]
- IC50 [1]: 104 nM
- 11b-HSD1 oxidase (activ rem %) 100 nM [2]: 109.0%
- 11b-HSD1 oxidase (activ rem %) 100 uM [2]: 77.2%
- 11b-HSD2 oxidase (activ rem %) Microcosms 100 nM (11β-HSD2): 68.8%

SMILES: Brc1ccc(CCc2nc(C34CC5CC(CC(C5)C3)C4)no2)cc1 [BD-35, 1-(4-bromophenyl)-2-(3-adamantyl-1,2,4-oxadiazol-5-yl)ethane]
- IC50 [1]: 9.9 nM
- 11b-HSD1 oxidase (activ rem %) 100 nM [2]: 91.3%
- 11b-HSD1 oxidase (activ rem %) 100 uM [2]: 104.0%
- 11b-HSD2 oxidase (activ rem %) Microcosms 100 nM (11β-HSD2): 79.5%

SMILES: Cc1ccc(CCc2nc(C34CC5CC(CC(C5)C3)C4)no2)cc1 [BD-36, 1-(4-methylphenyl)-2-(3-adamantyl-1,2,4-oxadiazol-5-yl)ethane]
- IC50 [1]: 102 nM
- 11b-HSD1 oxidase (activ rem %) 100 nM [2]: 110.3%
- 11b-HSD1 oxidase (activ rem %) 100 uM [2]: 95.3%
- 11b-HSD2 oxidase (activ rem %) Microcosms 100 nM (11β-HSD2): 40.1%

SMILES: Oc1ccc(CCc2nc(C34CC5CC(CC(C5)C3)C4)no2)cc1 [BD-37, 1-(4-hydroxyphenyl)-2-(3-adamantyl-1,2,4-oxadiazol-5-yl)ethane]
- IC50 [1]: 1.1 nM
- 11b-HSD1 oxidase (activ rem %) 100 nM [2]: 109.6%
- 11b-HSD1 oxidase (activ rem %) 100 uM [2]: 88.1%
- 11b-HSD2 oxidase (activ rem %) Microcosms 100 nM (11β-HSD2): 58.3%

SMILES: COc1cccc(CCc2nc(C34CC5CC(CC(C5)C3)C4)no2)c1 [BD-38, 1-(3-methoxyphenyl)-2-(3-adamantyl-1,2,4-oxadiazol-5-yl)ethane]
- IC50 [1]: 102 nM
- 11b-HSD1 oxidase (activ rem %) 100 nM [2]: 88.1%
- 11b-HSD1 oxidase (activ rem %) 100 uM [2]: 100.5%
- 11b-HSD2 oxidase (activ rem %) Microcosms 100 nM (11β-HSD2): 61.9%

SMILES: c1cc(CCc2nc(C34CC5CC(CC(C5)C3)C4)no2)ccn1 [BD-39, 1-(4-pyridyl)-2-(3-adamantyl-1,2,4-oxadiazol-5-yl)ethane]
- IC50 [1]: 97 nM
- 11b-HSD1 oxidase (activ rem %) 100 nM [2]: 89.4%
- 11b-HSD1 oxidase (activ rem %) 100 uM [2]: 75.3%
- 11b-HSD2 oxidase (activ rem %) Microcosms 100 nM (11β-HSD2): 59.2%

SMILES: CC(C)(C)c1ccc(CCc2nc(C34CC5CC(CC(C5)C3)C4)no2)cc1 [BD-41, 1-(4-tert-butylphenyl)-2-(3-adamantyl-1,2,4-oxadiazol-5-yl)ethane]
- IC50 [1]: 102 nM
- 11b-HSD1 oxidase (activ rem %) 100 nM [2]: 85.9%
- 11b-HSD1 oxidase (activ rem %) 100 uM [2]: 86.1%
- 11b-HSD2 oxidase (activ rem %) Microcosms 100 nM (11β-HSD2): 49.7%

SMILES: Fc1cccc(CCc2nc(C34CC5CC(CC(C5)C3)C4)no2)c1 [BD-42, 1-(3-fluorophenyl)-2-(3-adamantyl-1,2,4-oxadiazol-5-yl)ethane]
- IC50 [1]: 92 nM
- 11b-HSD1 oxidase (activ rem %) 100 nM [2]: 83.0%
- 11b-HSD1 oxidase (activ rem %) 100 uM [2]: 89.8%
- 11b-HSD2 oxidase (activ rem %) Microcosms 100 nM (11β-HSD2): 59.2%

SMILES: c1ccc(CCc2nc(C34CC5CC(CC(C5)C3)C4)no2)nc1 [BD-45, 1-(2-pyridyl)-2-(3-adamantyl-1,2,4-oxadiazol-5-yl)ethane]
- IC50 [1]: 1.1 nM
- 11b-HSD1 oxidase (activ rem %) 100 nM [2]: 97.4%
- 11b-HSD2 oxidase (activ rem %) Microcosms 100 nM (11β-HSD2): 70.2%

SMILES: O=[N+]([O-])c1ccc(CCc2nc(C34CC5CC(CC(C5)C3)C4)no2)cc1 [BD-46, 1-(4-nitrophenyl)-2-(3-adamantyl-1,2,4-oxadiazol-5-yl)ethane]
- IC50 [1]: 24 nM
- 11b-HSD1 oxidase (activ rem %) 100 nM [2]: 104.6%
- 11b-HSD1 oxidase (activ rem %) 100 uM [2]: 65.4%
- 11b-HSD2 oxidase (activ rem %) Microcosms 100 nM (11β-HSD2): 62.0%

Source: patent US12304894B2, “Derivatives of adamantyl oxadiazoles and pharmaceutically acceptable solvates, hydrates and salts thereof, pharmaceutical composition comprising same, synthesis method, suitable for use as effective and selective inhibitors of the reductase activity of the enzyme 11-beta dehydrogenase type 1 …” (PONTIFICIA UNIVERSIDAD CATOLICA DE CHILE, priority 2019, dated 2025)
